In patent publication US10775391B2, “Nervous system-specific transmembrane proteasome complex that modulates neuronal signaling through extracellular signaling via brain activity peptides” (THE JOHNS HOPKINS UNIVERSITY, priority 2015, dated 2020):
Where a SMILES comes first, the peptide text is derived from it. The star is where a group is joined. Cbz = O=C(OCc1ccccc1)*

How the values were obtained:
[1] = test system: GCaMP3-transfected cultured cortical neurons; assay: Calcium imaging of bicuculline-stimulated GCaMP3-transfected cortical neurons; type: cell-based, mouse; details: for amplitude of bicuculline-induced calcium transients: 1 μM bicuculline, biotin-epoxomicin 25 μM co-administered
Method: Bicuculline treatment was administered as a 1 μM stimulation in calcium imaging buffer in a perfusion setup. […] Each treatment was monitored for three minutes prior to washout. […] Cells were ensured to be healthy at the end of the imaging process by stimulating with 55 mM KCl and washing out and assessing for a proper calcium signal. Quantification was done by picking multiple regions of interests in primary and secondary dendrites across multiple coverslips over different imaging days. Data was analyzed using the Time Series Analyzer V3.0 ImageJ plugin and the ROI manager. Data were pooled for all the ROIs to generate a single N value. Brains from P0-P3 mouse pups (Cre GCaMP3; Nestin-Cre ER) were dissected and plated in Neurobasal-A with B-27 supplement for two weeks. At DIV7, 4-hydroxytamoxifen (4-HT, concentration) was added to induce GCaMP expression. Neurons were imaged in a calcium-imaging buffer (130 mM NaCl, 3 mM KCl, 2.5 mM CaCl2, 0.6 mM MgCl2, 10 mM Hepes, 10 mM glucose, 1.2 mM NaHCO3 pH 7.45). Peptides were collected, filtered, and dialyzed and then lyophilized prior to resuspension in 1 mL of MilliQ water and addition onto GCaMP-encoding neurons. […] Peptides treated with Proteinase K were spun through a 10 kDa MW cutoff filter prior to addition onto neurons in order to remove Proteinase K. Random peptide mixtures contained HIV-TAT, a polybasic peptide mixture, or a crude peptide prep.

[2] = target: T1, Neuronal Membrane Proteasome (NMP) (Mus musculus, UniProt O55234+P70195+Q60692); assay: Release of 35S-radiolabeled peptides (SNAPPs) from cortical neurons into media, liquid scintillation; type: cell-based; details: baseline spontaneous activity
T1 construct: we believe that the endogenous NMP is catalytically active; endogenous in cells; host or cells: primary cultured cortical neurons from C57Bl/6 mouse embryos
Method: Cortical neurons were cultured for 12-18 days in vitro. Neurons were membrane depolarized with 55 mM extracellular KCl by addition of prewarmed depolarization buffer (55 mM KCl, 0.2 mM CaCl2, 1 mM MgCl2, 10 mM HEPES pH7.5) or a mock buffer (55 mM NaCl, final) in fresh neuronal growth media as previously described (Nature 455: 1198-1204 (2008)). Labeling was done in Neurobasal growth media with B27 supplement and without methionine or cysteine (Life Technologies, special order). ^35S methionine-cysteine (EasyTag PerkinElmer) was incorporated at 55 mCi in the cys/met free growth medium. Where indicated, MG132 (25 mM, Cell Signaling) and ATPγS (1 mM, Sigma) was added during the radioactive labeling window, 15 minutes prior to stimulation and was kept in for the duration of the stimulation.
For any chase experiment, free radioactivity was washed out with phosphate-buffered saline and replaced with fresh neuronal growth medium. […]
Quantification of SNAPPs was done by quantifying the amount of radioactivity in each sample by liquid scintillation (Wallac 1410). […]

NMP [3] = target: T2, NMP (Mus musculus, UniProt O55234+P70195+Q60692); assay: Catalytic activity of purified NMP with fluorescent substrate SUC-LLVY-AMC; type: biochemical; details: low concentration (0.05% final), purified NMP in vitro
T2 construct: we purified NMPs from neuronal plasma membranes using a 20S purification matrix; endogenous in cells; host or cells: cultured neurons; detergent-extracted plasma membranes, isolated with the 20S proteasome purification kit (Enzo Life Sciences), assayed on beads
Method: In some embodiments, proteasome purification was performed as follows. Cells were treated and then immediately put on ice before purifications were performed as previously described (Methods Mol Biol 832, 423-432, 2012). Briefly, proteasomes were purified out of neuronal cytosol and detergent-extracted neuronal plasma membranes using the 20S proteasome purification kit (Enzo Life Sciences) or the 26S proteasome purification kit (UBPBio). For western blots, samples were denatured at 65° C. for 5 minutes in SDS sample buffer, resolved by SDS PAGE, transferred to nitrocellulose, and immunoblotted. For catalytic activity assays, ⅙th of the bead volume following proteasome purification was resuspended in activity assay buffer (20 mM Tris-HCl, pH8.0, 5 mM ATP, 5 mM MgCl2, 1 mM DTT). 26S proteasomal activity was assessed by the addition of 10 μM of SUC-LLVY-AMC (Enzo Life Sciences). The contribution of 20S proteasomal activity was assessed by the comparison of 26S proteasome activity to that of total proteasome activity (26S+20S), measured by the activity of samples containing SDS at a final concentration of 0.05%.

NMP [4] = assay: NMP expression by surface biotinylation, streptavidin pulldown and western blot in treated cortical neurons; type: cell-based; details: DIV12 mouse neurons, 1 μM for 12 hours
Method: Surface biotin-labeling was performed as previously described (Nat Neurosci 12, 879-887 2009). Whole mouse brains, cultured cells or whole animal tissue were obtained where indicated and each sample was labeled using Sulfo-NHS-LC-Biotin (ThermoFisher). Cultured cells were washed in pH 8.0 PBS (Gibco) with 1 mM CaCl2 and 2 mM MgCl2 (PBSCM) and treated with 1 mg/mL Sulfo-NHS-LC-Biotin dissolved in PBSCM for 20 minutes at 4° C. before the reaction was quenched for 10 minutes in 50 mM glycine in PBSCM. Intact tissue was quickly and manually chopped, following biotinylation for only 10 minutes at 4° C. in 0.5 mg/mL Sulfo-NHS-LC-Biotin prior to quenching the reaction.
Primary, human central nervous system (CNS) tissue, gestational weeks 19-21, were obtained under surgical written consent following protocols approved by the Johns Hopkins Institutional Review Board, based on its designation as biological waste. Tissue was mechanically chopped at 4° C., and immediately processed for surface biotinylation. For streptavidin pulldown experiments lysed cells were incubated with high capacity streptavidin agarose beads overnight and then washed thrice with RIPA buffer before resuspension in SDS sample buffer.
For western blots, samples were boiled for 5 minutes in SDS sample buffer, resolved by SDS PAGE, transferred to nitrocellulose, and immunoblotted. […]

CC(C)C[C@@H](C=O)NC(=O)[C@H](CC(C)C)NC(=O)[C@H](CC(C)C)NC(=O)OCc1ccccc1 [MG-132] (Cbz-Leu-Leu-Leu-aldehyde)
amplitude of bicuculline-induced calcium transients [1]: similar
neuronal activity-induced calcium signaling ([1]; acute addition onto neurons, within seconds): suppressed
peptide release under non-stimulating conditions [2]: inhibited

CCCCCCCCCCCCOS(=O)(=O)[O-].[Na+] [SDS, sodium-dodecyl-sulfate]
catalytic activity of the NMP (NMP [3]): potently stimulated

Aβ1-42: Aβ1-42 peptide used to treat mouse cortical neurons as an Alzheimer's disease model
expression of proteasome subunits in the streptavidin pulldown (NMP expression) (NMP [4]): significant decrease

biotin-epoxomicin
amplitude of bicuculline-induced calcium transients [1]: strongly and rapidly attenuated
